How the values were obtained:
[1] = biological target: Beta-hexosaminidase (Homo sapiens); test: Inhibition of human placenta beta-N-acetylglucosaminidase by pNP-GlcNAc substrate hydrolysis assay
[2] = biological target: Beta-hexosaminidase (Homo sapiens); test: Mixed type inhibition of human placenta beta-N-acetylglucosaminidase by pNP-GlcNAc substrate hydrolysis assay

**Q.** For `CC(=O)NC[C@H]1[C@H](O)[C@H](O)[C@@H]2[C@H](O)C[C@@H](CO)N21` [(1R*, 3S*, 5S*, 6S*, 7R*, 7a S*)-5-acetamidomethyl-3-hydroxymethyl-1,6,7-trihydroxypyrrolizidine], which IC50 [1] is on record?
**A.** The IC50 was 2.39 nM.

**Q.** And the Ki [2]?
**A.** Its Ki is 1.25 nM.

— BindingDB's records for doi:10.1016/j.bmc.2009.08.052 (Okayama University, 2009)
